For orientation: IC50 means the point on the concentration scale where inhibition reaches its midpoint. Higher therefore signals weaker potency.

Here are results for 19 molecules from patent publication US7932246B2, “Histone deacetylase inhibitors” (Chroma Therapeutics Ltd., priority 2005, dated 2011).

The structures appear in SMILES notation.

The subject of one experiment is HeLa cells. Briefly: HeLa cell inhibition assay (SRB cell viability). The format is cell-based. The note with it: Homo sapiens, HeLa, 72 h, IC50 range. As for the experimental part: HeLa cells growing in log phase were harvested and seeded at 1000 cells/well (200 μl final volume) into 96-well tissue culture plates. Following 24 h of cell growth cells were treated with compounds (final concentration of 20 μM). Plates were then re-incubated for a further 72 h before a sulphorhodamine B (SRB) cell viability assay was conducted according to Skehan 1990 J Natl Canc Inst 82, 1107-1112.
(§1) Data were expressed as a percentage inhibition of the control, measured in the absence of inhibitor, as follows:— % inhibition=100−[(S^i/S^o)×100] where S^i is the signal in the presence of inhibitor and S^o is the signal in the presence of DMSO.
IC50 values were determined by non-linear regression analysis, after fitting the results of eight data points to the equation for sigmoidal dose response with variable slope (% activity against log concentration of compound), using Graphpad Prism software.
(§2) IC50 results were allocated to one of 3 ranges as follows: […]

For another experiment, the system named is U937. Description: U937 cell inhibition assay (WST-1 cell viability). The format is cell-based. Conditions: Homo sapiens, U-937; U937 cells, 72-96 h, WST-1 assay, IC50 range. As for the experimental part: (§3) Cancer cell lines (U937 and HUT) growing in log phase were harvested and seeded at 1000-2000 cells/well (100 μl final volume) into 96-well tissue culture plates. Following 24 h of growth cells were treated with compound. Plates were then re-incubated for a further 72-96 h before a WST-1 cell viability assay was conducted according to the suppliers (Roche Applied Science) instructions.
as §1
(§4) Dose response curves were generated from 8 concentrations (top final concentration 10 μM, with 3-fold dilutions), using 6 replicates.
(§5) IC50 values were determined by non-linear regression analysis, after fitting the results to the equation for sigmoidal dose response with variable slope (% activity against log concentration of compound), using Graphpad Prism software.
as §2

Experiment [1] concerns the target histone deacetylase activity (HeLa nuclear extract). Briefly: HDAC fluorescent activity assay (Biomol, Fluor de Lys substrate). The experiment is classed as biochemical. Conditions: IC50 range. As for the experimental part: The ability of compounds to inhibit histone deacetylase activities was measured using the commercially available HDAC fluorescent activity assay from Biomol. In brief, the Fluor de Lys™ substrate, a lysine with an epsilon-amino acetylation, is incubated with the source of histone deacetylase activity (HeLa nuclear extract) in the presence or absence of inhibitor. Deacetylation of the substrate sensitises the substrate to Fluor de Lys™ developer, which generates a fluorophore.
Data are expressed as a percentage of the control, measured in the absence of inhibitor, with background signal being subtracted from all samples, as follows:— % activity=[(S^i−B)/(S^o−B)]×100 where S^i is the signal in the presence of substrate, enzyme and inhibitor, S^o is the signal in the presence of substrate, enzyme and the vehicle in which the inhibitor is dissolved, and B is the background signal measured in the absence of enzyme.
Histone deacetylase activity from crude nuclear extract derived from HeLa cells was used for screening. The preparation, purchased from 4C (Seneffe, Belgium), was prepared from HeLa cells harvested whilst in exponential growth phase. The nuclear extract is prepared according to Dignam JD1983 Nucl. Acid. […] The final buffer composition was 20 mM Hepes, 100 mM KCl, 0.2 mM EDTA, 0.5 mM DTT, 0.2 mM PMSF and 20% (v/v) glycerol.

Another experiment concerns HUT. Briefly: HUT cell inhibition assay (WST-1 cell viability). The format is cell-based. Conditions: HUT cells, 72-96 h, WST-1 assay, IC50 range. How it is done: as §3, §1, §4, §5, §2
A general note: Tetrazolium assays rely on reduction of a dye to a coloured formazan, in cell work by metabolically active cells.

Consider `O=C(NO)c1cnc(N2CC3C(C2)C3NC(c2ccccc2)C(F)(F)F)nc1` (stereo not shown) [Example 40, N-Hydroxy 2-{6-[(2,2,2-trifluoro-1-phenylethyl)amino]-3-azabicyclo[3.1.0]hex-3-yl}pyrimidine-5-carboxamide], for which the IC50 with HeLa cells is 331 to 3300 nM; with U937 it was 331 to 3300 nM; in experiment [1] it was below 100 nM; with HUT it was below 330 nM.
With `O=C(NO)c1cnc(N2CC3C(C2)C3NCc2ccc(F)cc2)nc1` (stereo not shown) [Example 41, N-Hydroxy 2-{6-[(4-fluorobenzyl)amino]-3-azabicyclo[3.1.0]hex-3-yl}pyrimidine-5-carboxamide], the IC50 in the experiment with HeLa cells was 331 to 3300 nM; with U937, below 330 nM; in experiment [1], below 100 nM; in the experiment on HUT, below 330 nM.
Consider `O=C(NO)c1cnc(N2CC3C(C2)C3NCc2ccc(C(F)(F)F)cc2)nc1` (stereo not shown) [Example 42], for which the IC50 in the experiment with HeLa cells was 331 to 3300 nM; in the experiment with U937 it was 331 to 3300 nM; in experiment [1] it was below 100 nM; in the experiment with HUT it was below 330 nM.
In the case of `O=C(NO)c1cnc(N2CC3C(C2)C3NCc2ccc3ccccc3n2)nc1` (stereo not shown) [Example 43, N-Hydroxy 2-{6-[(quinolin-2-ylmethyl)amino]-3-azabicyclo[3.1.0]hex-3-yl}pyrimidine-5-carboxamide], the IC50 is below 330 nM with HeLa cells, below 330 nM with U937, below 100 nM in experiment [1] and below 330 nM in the experiment on HUT.
With `O=C(NO)c1cnc(N2CC3C(C2)C3NCc2ccc3cc(F)ccc3n2)nc1` (stereo not shown) [Example 44, N-Hydroxy 2-(6-{[(6-fluoroquinolin-2-yl)methyl]amino}-3-azabicyclo[3.1.0]hex-3-yl)pyrimidine-5-carboxamide], the IC50 in the experiment on HeLa cells was below 330 nM; in the experiment with U937, below 330 nM; in experiment [1], below 100 nM; in the experiment on HUT it was below 330 nM.
`CN(C1C2CN(c3ncc(C(=O)NO)cn3)CC21)S(=O)(=O)c1ccc2ccccc2c1` (stereo not shown) [Example 45, N-Hydroxy 2-{6-[methyl(naphthalene-2-sulfonyl)-amino]-3-aza-bicyclo[3.1.0]hex-3-yl}pyrimidine-5-carboxamide]: the IC50 is 331 to 3300 nM in the experiment with HeLa cells, 331 to 3300 nM with U937, below 100 nM in experiment [1] and below 330 nM with HUT.
Turning to `O=C(NO)c1cnc(N2CC3C(C2)C3N(CCN2CCCC2)S(=O)(=O)c2ccc3ccccc3c2)nc1` (stereo not shown) [Example 46, N-Hydroxy 2-{6-[(naphthalene-2-sulfonyl)-(2-pyrrolidin-1-yl-ethyl)amino]-3-azabicyclo[3.1.0]hex-3-yl}pyrimidine-5-carboxamide], the IC50 with HeLa cells is below 330 nM; in the experiment on U937, below 330 nM; in experiment [1] it was below 100 nM; in the experiment on HUT it was below 330 nM.
With `Cc1nccn1CCN(C1C2CN(c3ncc(C(=O)NO)cn3)CC21)S(=O)(=O)c1ccc2ccccc2c1` (stereo not shown) [Example 47, N-Hydroxy 2-{6-[[2-(2-methylimidazol-1-yl)ethyl](naphthalene-2-sulfonyl)amino]-3-azabicyclo[3.1.0]hex-3-yl}pyrimidine-5-carboxamide], the IC50 in the experiment on HeLa cells is 331 to 3300 nM; with U937 it was 331 to 3300 nM; in experiment [1] it was below 100 nM; in the experiment with HUT, 331 to 3300 nM.
As for `O=C(NO)c1cnc(N2CC3C(C2)C3N(CCN2CCCC2=O)S(=O)(=O)c2ccc3ccccc3c2)nc1` (stereo not shown) [Example 48, N-Hydroxy 2-(6-{(naphthalene-2-sulfonyl)-[2-(2-oxopyrrolidin-1-yl)ethyl]amino}-3-aza-bicyclo[3.1.0]hex-3-yl)pyrimidine-5-carboxamide], the IC50 in the experiment with HeLa cells was 331 to 3300 nM; in the experiment on U937 it was 331 to 3300 nM; in experiment [1] it was below 100 nM; with HUT, 331 to 3300 nM.
Regarding `O=C(NO)c1cnc(N2CC3C(C2)C3N(CCO)S(=O)(=O)c2ccc3ccccc3c2)nc1` (stereo not shown) [Example 49, N-Hydroxy 2-{6-[(2-hydroxyethyl)(naphthalene-2-sulfonyl)amino]-3-azabicyclo[3.1.0]hex-3-yl}pyrimidine-5-carboxamide], the IC50 with HeLa cells was 331 to 3300 nM; with U937, 331 to 3300 nM; in experiment [1], below 100 nM; in the experiment on HUT, 331 to 3300 nM.
With `O=C(NO)c1cnc(N2CC3C(C2)C3N(CCN2CCOCC2)S(=O)(=O)c2ccc3ccccc3c2)nc1` (stereo not shown) [Example 51], the IC50 in the experiment on HeLa cells is below 330 nM; in the experiment on U937, below 330 nM; in experiment [1], below 100 nM; with HUT, below 330 nM.
As for `O=C(NO)c1cnc(N2CC3C(C2)C3N(CCN2CCCCC2)S(=O)(=O)c2ccc3ccccc3c2)nc1` (stereo not shown) [Example 53, N-Hydroxy 2-{6-[(naphthalene-2-sulfonyl)-(2-piperidin-1-ylethyl)amino]-3-azabicyclo[3.1.0]hex-3-yl}pyrimidine-5-carboxamide], the IC50 with HeLa cells is below 330 nM; with U937, below 330 nM; in experiment [1], below 100 nM; in the experiment with HUT it was below 330 nM.
`O=C(NO)c1cnc(N2CC3C(C2)C3N(CCc2ccccn2)S(=O)(=O)c2ccc3ccccc3c2)nc1` (stereo not shown) [Example 54, N-Hydroxy 2-{6-[(naphthalene-2-sulfonyl)-(2-pyridin-2-ylethyl)-amino]-3-azabicyclo[3.1.0]hex-3-yl}pyrimidine-5-carboxamide]: the IC50 in the experiment on HeLa cells was 331 to 3300 nM; in the experiment on U937, 331 to 3300 nM; in experiment [1] it was below 100 nM; with HUT it was 331 to 3300 nM.
In the case of `O=C(NO)c1cnc(N2CC3C(C2)C3N(CCN2CCCC2=O)S(=O)(=O)c2ccc(OC(F)(F)F)cc2)nc1` (stereo not shown) [Example 55, N-Hydroxy 2-{6-[[2-(2-oxopyrrolidin-1-yl)ethyl]-(4-trifluoromethoxybenzenesulfonyl)amino]-3-aza-bicyclo[3.1.0]hex-3-yl}pyrimidine-5-carboxamide], the IC50 in the experiment with HeLa cells was above 3300 nM; in the experiment with U937, 331 to 3300 nM; in experiment [1], below 100 nM; with HUT, 331 to 3300 nM.
`CCN(CC)CCN(Cc1ccc2ccccc2c1)C1C2CN(c3ncc(C(=O)NO)cn3)CC21` (stereo not shown) [Example 56, N-Hydroxy 2-{6-[(2-diethylaminoethyl)naphthalen-2-ylmethylamino]-3-azabicyclo[3.1.0]hex-3-yl}pyrimidine-5-carboxamide]: the IC50 is below 330 nM in the experiment with HeLa cells, 331 to 3300 nM in the experiment with U937, below 100 nM in experiment [1] and below 330 nM in the experiment on HUT.
Take `O=C(NO)c1cnc(N2CC3C(C2)C3N(Cc2ccc3ccccc3c2)Cc2ccc3ccccc3c2)nc1` (stereo not shown) [Example 57, N-Hydroxy 2-[6-(bisnaphthalen-2-ylmethylamino)-3-azabicyclo[3.1.0]hex-3-yl]pyrimidine-5-carboxamide]: the IC50 in the experiment with HeLa cells is above 3300 nM; in the experiment on U937, above 3300 nM; in experiment [1] it was above 1000 nM; with HUT, above 3300 nM.
For `O=C(NO)c1cnc(N2CC3C(C2)C3N(Cc2cccnc2)Cc2ccc3ccccc3c2)nc1` (stereo not shown) [Example 58, N-Hydroxy 2-[6-(naphthalen-2-ylmethylpyridin-3-ylmethylamino)-3-aza-bicyclo[3.1.0]hex-3-yl]pyrimidine-5-carboxamide], the IC50 in the experiment with HeLa cells was 331 to 3300 nM; in the experiment with U937, 331 to 3300 nM; in experiment [1], 101 to 1000 nM; in the experiment with HUT it was 331 to 3300 nM.
With `CCN(CC)CCC(=O)N(Cc1ccc2ccccc2c1)C1C2CN(c3ncc(C(=O)NO)cn3)CC21` (stereo not shown) [Example 59, N-Hydroxy 2-{6-[(3-diethylaminopropionyl)naphthalen-2-ylmethylamino]-3-azabicyclo[3.1.0]hex-3-yl}-pyrimidine-5-carboxamide], the IC50 was below 330 nM in the experiment on HeLa cells, below 330 nM in the experiment with U937, below 100 nM in experiment [1] and below 330 nM in the experiment on HUT.
`CC(=O)N(Cc1ccc2ccccc2c1)C1C2CN(c3ncc(C(=O)NO)cn3)CC21` (stereo not shown) [Example 60, N-Hydroxy 2-[6-(acetylnaphthalen-2-ylmethylamino)-3-azabicyclo[3.1.0]hex-3-yl]pyrimidine-5-carboxamide]: the IC50 in the experiment on HeLa cells was below 330 nM; in the experiment on U937, below 330 nM; in experiment [1] it was below 100 nM; in the experiment with HUT it was below 330 nM.
